# PMC11984392, “EphA2-targeted alpha-particle theranostics for enhancing PDAC treatment” (Theranostics, 2025)
# Where two headings read alike, the source gives them in different places. *1 amine or outer side, *2 acyl side, *3 side chain or, on linkers, in order; H or OH if unused. Where a SMILES comes first, the peptide text is derived from it. Bridges are numbered along the chain shown (N, C = ends). [ ]: non-standard residue; d: D form. The star is where a group is joined. TATA = O=C(CC[*:1])N1CN(C(=O)CC[*:2])CN(C(=O)CC[*:3])C1; NOTA = O=C(O)CN1CCN(CC(=O)O)CCN(CC(=O)*)CC1; Hyp = O=C(O)[C@@H]1C[C@@H](O)CN1; hArg = N=C(N)NCCCC[C@H](N)C(=O)O; PEG2 = NCCOCCOCCC(=O)O; Sar = CNCC(=O)O
# Assay: Ex vivo biodistribution
# Set-up: species or system NSG mice
# Settings: both sexes, NSG, mouse, in vivo, total radioactivity, mean ± SEM (n = 4 or 5); for tissue uptake at 2 h / tissue to tissue ratio at 2 h: 120 min p.i.; for tissue to tissue ratio at 2 h: dimensionless; for tissue uptake at 5 min: 5 min p.i.; for tissue uptake at 0.5 h: 30 min p.i.; for tissue uptake at 1.5 h: 90 min p.i.
# Protocol: Animal studies were performed under Johns Hopkins University Animal Care and Use Committee (ACUC)-approved protocol (Principal investigator: Sridhar Nimmagadda, Ph.D. and Protocol number M021M175). Male and Female NSG mice (5-6 weeks old) were purchased from JHU immunocompromised core and used to establish xenografts by administering cells subcutaneously (top right flank, unless otherwise noted) to form various tumor models within 3-4 weeks. Following cell numbers were used: Panc1, AsPC1, BxPC3 (1 M), Hs766T and SU8686 (2 M), CFPAC and Panc1005 (5 M). Imaging or biodistribution studies (n = 3-5) were conducted on mice with tumor volumes of 100-200 mm^3. The Panc1 orthotopic tumor model was established by surgically implanting a 3-5 mm^3 section of Panc1 tumor xenograft directly onto the pancreas. The implanted tumors were allowed to grow and were ready for imaging after 10 days of implantation.
# Mice with 100-200 mm^3 tumor volume were used for ex vivo biodistribution studies. For radiotracer pharmacokinetics and dosimetry studies, mice with Panc1 tumor xenograft received ~80 µCi (2.96 MBq) [^68Ga]AJ201 and were sacrificed at pre-determined time points (5, 30, 60, 90 and 120 min). All other mice were injected with ~50 µCi (1.85 MBq; 0.2 to 0.5 nmol) Ga-68 labeled radiotracer and were sacrificed at 60 min. The selected tissues were collected, weighed, counted, and their %ID/g values calculated for biodistribution analysis. For pharmacokinetics and dosimetry studies, selected tissues included blood, muscle, tumor, thymus, heart, lung, liver, pancreas, stomach, small intestine, large intestine, spleen, adrenals, kidney, bladder, femur, brain and tumor xenografts. For other studies, selected tissues were blood, muscle, tumor, heart, lung, liver, pancreas, small intestine, spleen, kidney.
# [1] = iv, i.v., read-out: Adrenals uptake
# [2] = iv, i.v., read-out: Bladder uptake
# [3] = iv, i.v., read-out: Femur uptake
# [4] = iv, i.v., read-out: Kidney uptake
# [5] = iv, i.v., read-out: Large Intestine uptake
# [6] = iv, i.v., read-out: Small intestine uptake
# [7] = iv, i.v., read-out: Spleen uptake
smiles,measurement,setting,value
"CC(C)C[C@@H]1NC(=O)[C@@H]2CSCCC(=O)N3CN(CN(C3)C(=O)CCSC[C@H](NC(=O)[C@H](CC(=O)O)NC(=O)[C@H](CCCCNC(=N)N)NC(=O)[C@H](C)NC(=O)CNC(=O)CN(C)C(=O)CN(C)C(=O)CN(C)C(=O)[C@H](CCCNC(=N)N)NC(=O)CNC(=O)CCOCCOCCNC(=O)CN3CCN(CC(=O)O)CCN(CC(=O)O)CC3)C(=O)N3C[C@H](O)C[C@H]3C(=O)N[C@@H](CC(C)C)C(=O)N[C@@H](C(C)C)C(=O)N[C@@H](CC(N)=O)C(=O)N3CCC[C@H]3C(=O)N[C@@H](CC(C)C)C(=O)N2)C(=O)CCSC[C@@H](C(N)=O)NC(=O)[C@H](CCCCNC(=N)N)NC(=O)[C@H](Cc2c[nH]c3ccccc23)NC(=O)[C@@H](CC(=O)O)NC(=O)[C@@H]2CCCN2C(=O)[C@H](Cc2c[nH]cn2)NC1=O [[^68Ga]AJ201, metal not drawn] ({NOTA-PEG2}-GR[Sar][Sar][Sar]GA[hArg]DC[Hyp]LVNPLCLHP[dD]W[hArg]C-NH2; linker 10-17-24 via TATA)",tissue uptake at 2 h,"iv, 80 uCi, i.v., read-out: Muscle uptake",0.26 ± 0.04 %ID/g
same,tissue uptake at 2 h,"iv, 80 uCi, i.v., read-out: Pancreas uptake",0.36 ± 0.07 %ID/g
same,tissue uptake at 2 h,"iv, 80 uCi, i.v., read-out: Thymus uptake",1.21 ± 0.52 %ID/g
same,tissue uptake at 2 h,"iv, 80 uCi, i.v., read-out: Tumor uptake",6.46 ± 0.39 %ID/g
same,tissue to tissue ratio at 2 h,"iv, 80 uCi, read-out: Tumor/Muscle ratio",24.9 ± 1.93
same,tissue to tissue ratio at 2 h,"iv, 80 uCi, read-out: Tumor/Pancreas ratio",18.7 ± 2.39
same,tissue to tissue ratio at 2 h,"iv, 80 uCi, read-out: Tumor/blood ratio",8.36 ± 1.85
same,tissue uptake at 5 min,[1],4.91 ± 1.83 %ID/g
same,tissue uptake at 5 min,[2],28.1 ± 12.1 %ID/g
same,tissue uptake at 5 min,[3],2.77 ± 0.13 %ID/g
same,tissue uptake at 5 min,[4],37.5 ± 5.93 %ID/g
same,tissue uptake at 5 min,[5],3.67 ± 0.66 %ID/g
same,tissue uptake at 5 min,[6],3.25 ± 0.3 %ID/g
same,tissue uptake at 5 min,[7],7.95 ± 1.66 %ID/g
same,tissue uptake at 0.5 h,[1],2.44 ± 0.46 %ID/g
same,tissue uptake at 0.5 h,[2],53.8 ± 30.8 %ID/g
same,tissue uptake at 0.5 h,[3],1.36 ± 0.37 %ID/g
same,tissue uptake at 0.5 h,[4],56.9 ± 1.26 %ID/g
same,tissue uptake at 0.5 h,[5],1.95 ± 0.98 %ID/g
same,tissue uptake at 0.5 h,[6],1.16 ± 0.18 %ID/g
same,tissue uptake at 0.5 h,[7],3.87 ± 1.1 %ID/g
same,tissue uptake at 1 h,"iv, 60 min p.i., i.v., read-out: Bladder uptake",48.6 ± 15.5 %ID/g
same,tissue uptake at 1 h,"iv, 60 min p.i., i.v., read-out: Femur uptake",0.28 ± 0.06 %ID/g
same,tissue uptake at 1 h,"iv, 60 min p.i., i.v., read-out: Kidney uptake",45.5 ± 2.9 %ID/g
same,tissue uptake at 1 h,"iv, 60 min p.i., i.v., read-out: Large Intestine uptake",0.15 ± 0.01 %ID/g
same,tissue uptake at 1 h,"iv, 60 min p.i., i.v., read-out: Small intestine uptake",0.49 ± 0.07 %ID/g
same,tissue uptake at 1 h,"iv, 60 min p.i., i.v., read-out: Spleen uptake",0.74 ± 0.17 %ID/g
same,tissue uptake at 1.5 h,[1],1.85 ± 0.46 %ID/g
same,tissue uptake at 1.5 h,[2],18.3 ± 6.35 %ID/g
same,tissue uptake at 1.5 h,[4],61.8 ± 11.5 %ID/g
same,tissue uptake at 1.5 h,[5],1.46 ± 0.35 %ID/g
same,tissue uptake at 1.5 h,[6],0.6 ± 0.15 %ID/g
same,tissue uptake at 1.5 h,[7],1.81 ± 0.78 %ID/g
same,tissue uptake at 2 h,[1],2.69 ± 0.27 %ID/g
same,tissue uptake at 2 h,[2],19 ± 8.08 %ID/g
same,tissue uptake at 2 h,[4],52 ± 7.46 %ID/g
same,tissue uptake at 2 h,[5],1.02 ± 0.3 %ID/g
same,tissue uptake at 2 h,[6],0.45 ± 0.24 %ID/g
same,tissue uptake at 2 h,[7],1.55 ± 0.47 %ID/g
same,tissue uptake at 2 h,"iv, i.v., read-out: Stomach with contents uptake",0.3 ± 0.01 %ID/g
same,tissue uptake at 1 h,"60 min p.i. with blocking (non-radioactive AJ201 pre-administered), read-out: Adrenals uptake",2.36 ± 1.09 %ID/g
same,tissue uptake at 1 h,"60 min p.i. with blocking (non-radioactive AJ201 pre-administered), read-out: Bladder uptake",14.4 ± 13.2 %ID/g
same,tissue uptake at 1 h,"60 min p.i. with blocking (non-radioactive AJ201 pre-administered), read-out: Blood uptake",0.65 ± 0.11 %ID/g
same,tissue uptake at 1 h,"60 min p.i. with blocking (non-radioactive AJ201 pre-administered), read-out: Brain uptake",0.04 ± 0.001 %ID/g
same,tissue uptake at 1 h,"60 min p.i. with blocking (non-radioactive AJ201 pre-administered), read-out: Femur uptake",0.38 ± 0.05 %ID/g
same,tissue uptake at 1 h,"60 min p.i. with blocking (non-radioactive AJ201 pre-administered), read-out: Heart uptake",0.31 ± 0.05 %ID/g
same,tissue uptake at 1 h,"60 min p.i. with blocking (non-radioactive AJ201 pre-administered), read-out: Kidney uptake",71.3 ± 14.2 %ID/g
same,tissue uptake at 1 h,"60 min p.i. with blocking (non-radioactive AJ201 pre-administered), read-out: Large Intestine uptake",0.93 ± 0.4 %ID/g
same,tissue uptake at 1 h,"60 min p.i. with blocking (non-radioactive AJ201 pre-administered), read-out: Liver uptake",0.48 ± 0.07 %ID/g
same,tissue uptake at 1 h,"60 min p.i. with blocking (non-radioactive AJ201 pre-administered), read-out: Lung uptake",0.8 ± 0.14 %ID/g
same,tissue uptake at 1 h,"60 min p.i. with blocking (non-radioactive AJ201 pre-administered), read-out: Muscle uptake",0.26 ± 0.03 %ID/g
same,tissue uptake at 1 h,"60 min p.i. with blocking (non-radioactive AJ201 pre-administered), read-out: Pancreas uptake",0.3 ± 0.03 %ID/g
same,tissue uptake at 1 h,"60 min p.i. with blocking (non-radioactive AJ201 pre-administered), read-out: Small intestine uptake",0.51 ± 0.08 %ID/g
same,tissue uptake at 1 h,"60 min p.i. with blocking (non-radioactive AJ201 pre-administered), read-out: Spleen uptake",0.7 ± 0.11 %ID/g
same,tissue uptake at 1 h,"60 min p.i. with blocking (non-radioactive AJ201 pre-administered), read-out: Stomach with contents uptake",0.19 ± 0.06 %ID/g
same,tissue uptake at 1 h,"60 min p.i. with blocking (non-radioactive AJ201 pre-administered), read-out: Thymus uptake",2.28 ± 0.53 %ID/g
same,tissue uptake at 1 h,"60 min p.i. with blocking (non-radioactive AJ201 pre-administered), read-out: Tumor uptake",1.08 ± 0.24 %ID/g
same,tissue to tissue ratio at 1 h,"60 min p.i. with blocking (non-radioactive AJ201 pre-administered), read-out: Tumor/Muscle ratio",4.4 ± 1.19
same,tissue to tissue ratio at 1 h,"60 min p.i. with blocking (non-radioactive AJ201 pre-administered), read-out: Tumor/Pancreas ratio",3.5 ± 0.7
same,tissue to tissue ratio at 1 h,"60 min p.i. with blocking (non-radioactive AJ201 pre-administered), read-out: Tumor/blood ratio",1.66 ± 0.37
